Tested on: 885724-159-R-J1-PDC complex spheroid viability
Assay: Anticancer human tumor 885724-159-R-J1-PDC patient-derived pancreatic adenocarcinoma cell line growth inhibition [GQUAD]
Conditions: for IC50: curve of first compound; for viability, T/C: stronger effect = lower value; active = viability on the fitted dose curve at most 10% of control; inactive = the rest
Procedure, shortened: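 Tumor cells were grown as complex spheroids with HUVEC endothelial cells and mesenchymal stem cells as stroma. G-quadruplex stabilizers were combined with targeted agents over half-log dilutions from near the clinical Cmax, or from 10 microM.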

[1] = second compound 0.0316 µM, first compound 0.000999 µM
[2] = second compound 0.0316 µM, first compound 0.00316 µM
[3] = second compound 0.0316 µM, first compound 0.00999 µM
[4] = second compound 0.0316 µM, first compound 0.0316 µM
[5] = second compound 0.0316 µM, first compound 0.0999 µM
[6] = second compound 0.0316 µM, first compound 0.316 µM
[7] = second compound 0.1 µM, first compound 0.000999 µM
[8] = second compound 0.1 µM, first compound 0.00316 µM
[9] = second compound 0.1 µM, first compound 0.00999 µM
[10] = second compound 0.1 µM, first compound 0.0316 µM
[11] = second compound 0.1 µM, first compound 0.0999 µM
[12] = second compound 0.1 µM, first compound 0.316 µM
[13] = second compound 0.316 µM, first compound 0.000999 µM
[14] = second compound 0.316 µM, first compound 0.00316 µM
[15] = second compound 0.316 µM, first compound 0.00999 µM
[16] = second compound 0.316 µM, first compound 0.0316 µM
[17] = second compound 0.316 µM, first compound 0.0999 µM
[18] = second compound 0.316 µM, first compound 0.316 µM
[19] = second compound 1 µM, first compound 0.000999 µM
[20] = second compound 1 µM, first compound 0.00316 µM
[21] = second compound 1 µM, first compound 0.00999 µM
[22] = second compound 1 µM, first compound 0.0316 µM
[23] = second compound 1 µM, first compound 0.0999 µM
[24] = second compound 1 µM, first compound 0.316 µM
[25] = second compound 3.16 µM, first compound 0.000999 µM
[26] = second compound 3.16 µM, first compound 0.00316 µM
[27] = second compound 3.16 µM, first compound 0.00999 µM
[28] = second compound 3.16 µM, first compound 0.0316 µM
[29] = second compound 3.16 µM, first compound 0.0999 µM
[30] = second compound 3.16 µM, first compound 0.316 µM
[31] = second compound 10 µM, first compound 0.000999 µM
[32] = second compound 10 µM, first compound 0.00316 µM
[33] = second compound 10 µM, first compound 0.00999 µM
[34] = second compound 10 µM, first compound 0.0316 µM
[35] = second compound 10 µM, first compound 0.0999 µM
[36] = second compound 10 µM, first compound 0.316 µM
[37] = second compound 0.0316 µM, first compound 0.1 µM
[38] = second compound 0.0316 µM, first compound 1 µM
[39] = second compound 0.0316 µM, first compound 3.16 µM
[40] = second compound 0.0316 µM, first compound 10 µM
[41] = second compound 0.1 µM, first compound 0.1 µM
[42] = second compound 0.1 µM, first compound 1 µM
[43] = second compound 0.1 µM, first compound 3.16 µM
[44] = second compound 0.1 µM, first compound 10 µM
[45] = second compound 0.316 µM, first compound 0.1 µM
[46] = second compound 0.316 µM, first compound 1 µM
[47] = second compound 0.316 µM, first compound 3.16 µM
[48] = second compound 0.316 µM, first compound 10 µM
[49] = second compound 1 µM, first compound 0.1 µM
[50] = second compound 1 µM, first compound 1 µM
[51] = second compound 1 µM, first compound 3.16 µM
[52] = second compound 1 µM, first compound 10 µM
[53] = second compound 3.16 µM, first compound 0.1 µM
[54] = second compound 3.16 µM, first compound 1 µM
[55] = second compound 3.16 µM, first compound 3.16 µM
[56] = second compound 3.16 µM, first compound 10 µM
[57] = second compound 10 µM, first compound 0.1 µM
[58] = second compound 10 µM, first compound 1 µM
[59] = second compound 10 µM, first compound 3.16 µM
[60] = second compound 10 µM, first compound 10 µM
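Note: spheroids exposed to agents for seven days before readout.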
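Throughout, for viability, T/C: percent of vehicle control viability where 100% = DMSO wells.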

CCc1c2c(nc3ccc(O)cc13)-c1cc3c(c(=O)n1C2)COC(=O)[C@]3(O)CC + Cc1[nH]c2ccc(F)cc2c1-c1nc2c3cccnc3c3ncccc3c2[nH]1
< 0.999 nM: IC50 (second compound 3.16 µM)
active: viability, T/C [30] 7.27%
62.4 nM: IC50 (second compound 10 µM)
110 nM: IC50 (second compound 0.1 µM)
121 nM: IC50 (second compound 0.316 µM)
125 nM: IC50 (second compound 1 µM)
114 nM: IC50 (second compound 0.0316 µM)
inactive: viability, T/C [1] 96.4% | viability, T/C [2] 83.6% | viability, T/C [3] 83.2% | viability, T/C [4] 73.9% | viability, T/C [5] 55.5% | viability, T/C [6] 18.4% | viability, T/C [7] 104% | viability, T/C [8] 90.5% | viability, T/C [9] 76.8% | viability, T/C [10] 70.4% | viability, T/C [11] 60.9% | viability, T/C [12] 21.3% | viability, T/C [13] 85.8% | viability, T/C [14] 86% | viability, T/C [15] 73.3% | viability, T/C [16] 69.5% | viability, T/C [17] 59.8% | viability, T/C [18] 21.5% | viability, T/C [19] 78% | viability, T/C [20] 61.1% | viability, T/C [21] 57.6% | viability, T/C [22] 60.6% | viability, T/C [23] 58.7% | viability, T/C [24] 18.9% | viability, T/C [25] 43% | viability, T/C [26] 28.7% | viability, T/C [27] 28.4% | viability, T/C [28] 21.3% | viability, T/C [29] 14.1% | viability, T/C [31] 63% | viability, T/C [32] 58.8% | viability, T/C [33] 46.8% | viability, T/C [34] 60.3% | viability, T/C [35] 45.5% | viability, T/C [36] 21.4%

Cc1cccc(N(C)C(=O)C2C(O)CCN2c2nc(C)cc(C(F)(F)F)c2C#N)c1 (stereo not drawn) + Cc1[nH]c2ccc(F)cc2c1-c1nc2c3cccnc3c3ncccc3c2[nH]1
< 31.6 nM: IC50 (second compound 3.16 µM)
> 10000 nM: IC50 (second compound 0.0316 µM) | IC50 (second compound 0.1 µM) | IC50 (second compound 0.316 µM) | IC50 (second compound 1 µM) | IC50 (second compound 10 µM)
inactive: viability, T/C [4] 105% | viability, T/C [37] 93.1% | viability, T/C [6] 82.5% | viability, T/C [38] 100% | viability, T/C [39] 94.2% | viability, T/C [40] 93.1% | viability, T/C [10] 91.3% | viability, T/C [41] 95.3% | viability, T/C [12] 104% | viability, T/C [42] 98.6% | viability, T/C [43] 81.8% | viability, T/C [44] 87.8% | viability, T/C [16] 101% | viability, T/C [45] 101% | viability, T/C [18] 97.4% | viability, T/C [46] 79.9% | viability, T/C [47] 83.4% | viability, T/C [48] 86.7% | viability, T/C [22] 71.9% | viability, T/C [49] 70.6% | viability, T/C [24] 77.1% | viability, T/C [50] 66.2% | viability, T/C [51] 81% | viability, T/C [52] 70.8% | viability, T/C [28] 46.6% | viability, T/C [53] 41.4% | viability, T/C [30] 50.8% | viability, T/C [54] 42.6% | viability, T/C [55] 42.1% | viability, T/C [56] 43% | viability, T/C [34] 66.2% | viability, T/C [57] 68.3% | viability, T/C [36] 64.8% | viability, T/C [58] 69.1% | viability, T/C [59] 80.9% | viability, T/C [60] 82.7%

Cn1ncnc1[C@H]1c2n[nH]c(=O)c3cc(F)cc(c23)N[C@@H]1c1ccc(F)cc1 + Cc1[nH]c2ccc(F)cc2c1-c1nc2c3cccnc3c3ncccc3c2[nH]1
> 316 nM: IC50 (second compound 0.0316 µM) | IC50 (second compound 0.1 µM) | IC50 (second compound 0.316 µM) | IC50 (second compound 1 µM) | IC50 (second compound 10 µM)
inactive: viability, T/C [1] 104% | viability, T/C [2] 95.2% | viability, T/C [3] 106% | viability, T/C [4] 80.6% | viability, T/C [5] 91.9% | viability, T/C [6] 95.8% | viability, T/C [7] 97.5% | viability, T/C [8] 90% | viability, T/C [9] 85.6% | viability, T/C [10] 93.9% | viability, T/C [11] 88.3% | viability, T/C [12] 80.2% | viability, T/C [13] 87.3% | viability, T/C [14] 106% | viability, T/C [15] 92% | viability, T/C [16] 91.3% | viability, T/C [17] 80.8% | viability, T/C [18] 82.2% | viability, T/C [19] 78% | viability, T/C [20] 68.4% | viability, T/C [21] 68.8% | viability, T/C [22] 73.6% | viability, T/C [23] 72% | viability, T/C [24] 81% | viability, T/C [25] 40.1% | viability, T/C [26] 36.1% | viability, T/C [27] 43.8% | viability, T/C [28] 33.8% | viability, T/C [29] 38% | viability, T/C [30] 42.8% | viability, T/C [31] 63% | viability, T/C [32] 78.6% | viability, T/C [33] 73.6% | viability, T/C [34] 66.8% | viability, T/C [35] 80.6% | viability, T/C [36] 68.2%
< 0.999 nM: IC50 (second compound 3.16 µM)

O=C(c1cc(Cc2n[nH]c(=O)c3ccccc23)ccc1F)N1CCN(C(=O)C2CC2)CC1 + Cc1[nH]c2ccc(F)cc2c1-c1nc2c3cccnc3c3ncccc3c2[nH]1
inactive: viability, T/C [4] 99.1% | viability, T/C [37] 94.3% | viability, T/C [6] 103% | viability, T/C [38] 84.5% | viability, T/C [39] 89.2% | viability, T/C [40] 87.9% | viability, T/C [10] 102% | viability, T/C [41] 111% | viability, T/C [12] 92.2% | viability, T/C [42] 92.6% | viability, T/C [43] 103% | viability, T/C [44] 78.1% | viability, T/C [16] 85.5% | viability, T/C [45] 88.7% | viability, T/C [18] 90.3% | viability, T/C [46] 79.1% | viability, T/C [47] 96.2% | viability, T/C [48] 72.9% | viability, T/C [22] 71.1% | viability, T/C [49] 71.1% | viability, T/C [24] 77.2% | viability, T/C [50] 65.3% | viability, T/C [51] 76.8% | viability, T/C [52] 65.6% | viability, T/C [28] 41.3% | viability, T/C [53] 39.9% | viability, T/C [30] 56.6% | viability, T/C [54] 34.7% | viability, T/C [55] 49.8% | viability, T/C [56] 45.5% | viability, T/C [34] 64.7% | viability, T/C [57] 70.5% | viability, T/C [36] 76.8% | viability, T/C [58] 72.3% | viability, T/C [59] 70.6% | viability, T/C [60] 63.3%
< 31.6 nM: IC50 (second compound 3.16 µM)
> 10000 nM: IC50 (second compound 0.0316 µM) | IC50 (second compound 0.1 µM) | IC50 (second compound 0.316 µM) | IC50 (second compound 1 µM) | IC50 (second compound 10 µM)

Source: PubChem BioAssay AID2060502 (Molecular Pharmacology Branch, DTP, NCI, 2025)
